Values after ≈ are worked out from the molar mass of the structure shown.
Tests used:
[1] = Solubility of drug in water; format: physicochemical
Log P of drug = format: physicochemical; details: octanol/water
Text: The first property of hydrophobic drugs is that they are extremely hydrophobic. Log P, defined as the base 10 logarithm of the ratio of the drug solubility in octanol to the drug solubility in water, is a widely accepted measure of hydrophobicity. By “extremely hydrophobic” is meant that the Log P value of the drug is at least 4.0, preferably at least 4.5, and most preferably at least 5.0. Log P may be measured experimentally or calculated using methods known in the art. When using a calculated value for Log P, the highest value calculated using any generally accepted method for calculating Log P is used. Calculated Log P values are often referred to by the calculation method, such as Clog P, Alog P, and Mlog P. The Log P may also be estimated using fragmentation methods, such as Crippen's fragmentation method (27 J. Chem. Inf. Comput. Sci. 21 (1987)); Viswanadhan's fragmentation method (29 J. Chem. Inf. Comput. Sci. 163 (1989)); or Broto's fragmentation method (19 Eur. J. Med. Chem.-Chim. Theor. 71 (1984). Preferably the Log P value is calculated by using the average value estimated using Crippen's, Viswanadhan's, and Broto's fragmentation methods.

[2] = Solubility in model fasted duodenal (MFD) solution; format: physicochemical; details: fassgf or other biorelevant, PBS containing 7.3 mM sodium taurocholic acid and 1.4 mM 1-palmitoyl-2-oleyl-sn-glycero-3-phosphocholine
[3] = Method: The polymer is a poorly aqueous soluble non-ionizable polymer. […] An appropriate PBS solution is an aqueous solution consisting of 20 mM sodium phosphate (Na2HPO4), 47 mM potassium phosphate (KH2PO4), 87 mM NaCl, and 0.2 mM KCl, adjusted to pH 6.5 with NaOH. A test to determine whether the polymer is poorly aqueous soluble may be performed as follows. The polymer is initially present in bulk powder form with average particle sizes of greater than about 1 micron. The polymer alone is administered at a concentration of 0.2 mg/mL to the PBS solution and stirred for approximately 1 hour at room temperature. Next, a nylon 0.45 μm filter is weighed, and the polymer solution is filtered. The filter is dried overnight at 40° C., and weighed the following morning. The amount of polymer dissolved is calculated from the amount of polymer added to the PBS solution minus the amount of polymer remaining on the filter (mg). […] First, 0.2 mg/mL of the polymer was added to a PBS solution consisting of 20 mM Na2HPO4, 47 mM KH2PO4, 87 mM NaCl, and 0.2 mM KCl, adjusted to pH 6.5 with NaOH. The polymer was stirred in the PBS solution for approximately 1 hour at room temperature. […] The amount of soluble polymer was calculated from the amount of polymer added to form the polymer solution minus the amount of polymer remaining on the filter.

Compound	solubility [1] [µg/mL]	logP (Log P of drug)	solubility [2] [µg/mL]	Amount Soluble at pH 6.5 [3] [mg/mL]
Cc1onc(-c2ccccc2)c1-c1ccc(S(N)(=O)=O)cc1 [Drug 1, 4-(5-methyl-3-phenyl-4-isoxazolyl) benzenesulfonamide, reference compound]	~10 (≈ 31.8 µM)	~3	–	–
CC[C@@H]1C[C@H](N(Cc2cc(C(F)(F)F)cc(C(F)(F)F)c2)C(C)=O)c2cc(C(F)(F)F)ccc2N1C(=O)OC(C)C [Drug 2, [2R,4S]-4-[acetyl-(3,5-bis-trifluoromethyl-benzyl)-amino]-2-ethyl-6-trifluoromethyl-3,4-dihydro-2H-quinoline-1-carboxylic acid isopropyl ester]	< 1	6.7	–	–
Cc1ccc(-c2cc(C(F)(F)F)nn2-c2ccc(S(N)(=O)=O)cc2)cc1 [Drug 3, 4-[5-(4-methylphenyl)-3-(trifluoromethyl)-1H-pyrazol-1-yl]benzenesulfonamide]	–	–	~40 (≈ 105 µM)	–
cellulose acetate	–	–	–	0.03
ethylcellulose	–	–	–	<0.001
